In patent EP0745599A2, “1-(3-Heterocyclylphenyl)-s-triazine-2,4,6-oxo or thiotrione herbicidal agents” (American Cyanamid Company, priority 1995, dated 1996):

Tests used:
Assay type in all cases: in vivo
Details in all cases: rated four to five weeks after treatment
[1] = tested on: IPOMOEA SPP.; test: Preemergence herbicidal evaluation, IPOSS (Morningglory Spp.); set-up: key to IPOSS: visual rating scale 0-9 vs control
From the text: (§1) Results of herbicide evaluation are expressed on a rating scale (0-9). The scale is based upon a visual observation of plant stand, vigor, malformation, size, chlorosis and overall plant appearance as compared with a control.
(§2) The preemergence herbicidal activity of the test compounds of the present invention is exemplified by the following tests in which the seeds of a variety of monocotyledonous and dicotyledonous plants are separately mixed with potting soil and planted on top of approximately one inch of soil in separate pint cups. After planting, the cups are sprayed with the selected aqueous acetone solution containing test compound in sufficient quantity to provide the equivalent of about 0.125 to 0.50 kg per hectare of test compound per cup. The treated cups are then placed on greenhouse benches, watered and cared for in accordance with conventional greenhouse procedures. From four to five weeks after treatment, the tests are terminated and each cup is examined and rated according to the rating system provided in Example 42.

[2] = tested on: AMBROSIA ARTEMISIIFOLIA, L.; test: Preemergence herbicidal evaluation, AMBEL (Ragweed, Common); set-up: key to AMBEL: visual rating scale 0-9 vs control
From the text: as §1, §2

[3] = tested on: TRITICUM AESTIVUM, CV. APOLLO; test: Preemergence herbicidal evaluation, TRZAWO (Wheat, Winter, CV. APOLLO); set-up: key to TRZAWO: visual rating scale 0-9 vs control
From the text: as §1, §2

[4] = tested on: GLYCINE MAX(L)MERR. CV. WILLIAMS; test: Preemergence herbicidal evaluation, GLXMAW (Soybean, Williams); set-up: key to GLXMAW: visual rating scale 0-9 vs control
From the text: as §1, §2

[5] = tested on: CHENOPODIUM ALBUM, L.; test: Preemergence herbicidal evaluation, CHEAL (Lambsquarters, Common); set-up: key to CHEAL: visual rating scale 0-9 vs control
From the text: as §1, §2

[6] = tested on: GALIUM APARINE; test: Preemergence herbicidal evaluation, GALAP (Galium); set-up: key to GALAP: visual rating scale 0-9 vs control
From the text: as §1, §2

[7] = tested on: CASSIA OBTUSIFOLIA, L.; test: Preemergence herbicidal evaluation, CASOB (Sicklepod); set-up: key to CASOB: visual rating scale 0-9 vs control
From the text: as §1, §2

[8] = tested on: SETARIA VIRIDIS, (L) BEAU; test: Postemergence herbicidal evaluation, SETVI (Foxtail, Green)
Procedure: (§3) In the tests, seedling plants are grown in jiffy flats for about two weeks. The test compounds are dispersed in 50/50 acetone/water mixtures containing 0.5% TWEEN®20, a polyoxyethylene sorbitan monolaurate surfactant of Atlas Chemical Industries, in sufficient quantities to provide the equivalent of about 0.125 kg to 0.500 kg per hectare of active compound when applied to the plants through a spray nozzle operating at 40 psi for a predetermined time. After spraying, the plants are placed on greenhouse benches and are cared for in the usual manner, commensurate with conventional greenhouse practices. From four to five weeks after treatment, the seedling plants are examined and rated according to the rating system set forth below. Where more than one test is involved for a given compound, the data are averaged.
as §1

[9] = tested on: SETARIA VIRIDIS, (L) BEAU; test: Preemergence herbicidal evaluation, SETVI (Foxtail, Green); set-up: key to SETVI: visual rating scale 0-9 vs control
From the text: as §1, §2

[10] = tested on: ORYZA SATIVA, L. TEBONNET; test: Preemergence herbicidal evaluation, ORYSAT (Rice, Tebonnet); set-up: key to ORYSAT: visual rating scale 0-9 vs control
From the text: as §1, §2

[11] = tested on: ZEA MAYS L.; test: Preemergence herbicidal evaluation, ZEAMX (Corn, Field); set-up: key to ZEAMX: visual rating scale 0-9 vs control
From the text: as §1, §2

[12] = tested on: ECHINOCHLOA CRUS-GALLI, (L) BEAU; test: Preemergence herbicidal evaluation, ECHCG (Barnyardgrass); set-up: key to ECHCG: visual rating scale 0-9 vs control
From the text: as §1, §2

[13] = tested on: ABUTILON THEOPHRASTI, MEDIC.; test: Preemergence herbicidal evaluation, ABUTH (Velvetleaf); set-up: key to ABUTH: visual rating scale 0-9 vs control
From the text: as §1, §2

[14] = tested on: ECHINOCHLOA CRUS-GALLI, (L) BEAU; test: Postemergence herbicidal evaluation, ECHCG (Barnyardgrass)
Procedure: as §3, §1

C#CCn1c(=O)n(C)c(=O)n(-c2cc(N3C(=O)C4=C(CCCC4)C3=O)c(F)cc2Cl)c1=O [Compound 16, N-{4-Chloro-2-fluoro-5-[hexahydro-3-methyl-2,4,6-trioxo-5-(2-propynyl)-s-triazin-1-yl]phenyl}-1-cyclohexene-1,2-dicarboximide]
3.0: SETVI ([9]; Rate 0.500 kg/ha)
4.0: GALAP ([6]; Rate 0.500 kg/ha)
0.0: IPOSS ([1]; Rate 0.125 kg/ha) | IPOSS ([1]; Rate 0.250 kg/ha) | IPOSS ([1]; Rate 0.500 kg/ha) | AMBEL ([2]; Rate 0.125 kg/ha) | AMBEL ([2]; Rate 0.250 kg/ha) | TRZAWO ([3]; Rate 0.125 kg/ha) | TRZAWO ([3]; Rate 0.250 kg/ha) | TRZAWO ([3]; Rate 0.500 kg/ha) | GLXMAW ([4]; Rate 0.125 kg/ha) | GLXMAW ([4]; Rate 0.250 kg/ha) | GLXMAW ([4]; Rate 0.500 kg/ha) | GALAP ([6]; Rate 0.125 kg/ha) | GALAP ([6]; Rate 0.250 kg/ha) | CASOB ([7]; Rate 0.125 kg/ha) | CASOB ([7]; Rate 0.250 kg/ha) | CASOB ([7]; Rate 0.500 kg/ha) | Herbicide rating (0-9) SETVI ([8]; 0.125 kg/ha) | Herbicide rating (0-9) SETVI ([8]; 0.250 kg/ha) | Herbicide rating (0-9) SETVI ([8]; 0.500 kg/ha) | SETVI ([9]; Rate 0.125 kg/ha) | SETVI ([9]; Rate 0.250 kg/ha) | ORYSAT ([10]; Rate 0.125 kg/ha) | ORYSAT ([10]; Rate 0.250 kg/ha) | ORYSAT ([10]; Rate 0.500 kg/ha) | ZEAMX ([11]; Rate 0.125 kg/ha) | ECHCG ([12]; Rate 0.125 kg/ha) | ECHCG ([12]; Rate 0.250 kg/ha) | ECHCG ([12]; Rate 0.500 kg/ha) | Herbicide rating (0-9) ECHCG ([14]; 0.125 kg/ha) | Herbicide rating (0-9) ECHCG ([14]; 0.250 kg/ha) | Herbicide rating (0-9) ECHCG ([14]; 0.500 kg/ha)
2.0: AMBEL ([2]; Rate 0.500 kg/ha) | ZEAMX ([11]; Rate 0.500 kg/ha) | ABUTH ([13]; Rate 0.125 kg/ha)
6.0: CHEAL ([5]; Rate 0.125 kg/ha) | ABUTH ([13]; Rate 0.250 kg/ha)
8.0: CHEAL ([5]; Rate 0.250 kg/ha)
9.0: CHEAL ([5]; Rate 0.500 kg/ha) | ABUTH ([13]; Rate 0.500 kg/ha)
1.0: ZEAMX ([11]; Rate 0.250 kg/ha)

C=CCn1c(=O)n(C)c(=O)n(-c2cc(N3C(=O)C4=C(CCCC4)C3=O)c(F)cc2Cl)c1=O [Compound 17, N-[5-(3-Allylhexahydro-5-methyl-2,4,6-trioxo-s-triazin-1-yl)-4-chloro-2-fluoro-phenyl]-1-cyclohexene-1,2-dicarboximide]
7.0: GALAP ([6]; Rate 0.250 kg/ha)
0.0: IPOSS ([1]; Rate 0.125 kg/ha) | IPOSS ([1]; Rate 0.250 kg/ha) | IPOSS ([1]; Rate 0.500 kg/ha) | AMBEL ([2]; Rate 0.125 kg/ha) | AMBEL ([2]; Rate 0.250 kg/ha) | TRZAWO ([3]; Rate 0.125 kg/ha) | TRZAWO ([3]; Rate 0.250 kg/ha) | TRZAWO ([3]; Rate 0.500 kg/ha) | GLXMAW ([4]; Rate 0.125 kg/ha) | GLXMAW ([4]; Rate 0.250 kg/ha) | GLXMAW ([4]; Rate 0.500 kg/ha) | GALAP ([6]; Rate 0.125 kg/ha) | CASOB ([7]; Rate 0.125 kg/ha) | CASOB ([7]; Rate 0.250 kg/ha) | CASOB ([7]; Rate 0.500 kg/ha) | SETVI ([9]; Rate 0.125 kg/ha) | SETVI ([9]; Rate 0.250 kg/ha) | ORYSAT ([10]; Rate 0.125 kg/ha) | ORYSAT ([10]; Rate 0.250 kg/ha) | ZEAMX ([11]; Rate 0.125 kg/ha) | ZEAMX ([11]; Rate 0.250 kg/ha) | ECHCG ([12]; Rate 0.125 kg/ha) | ECHCG ([12]; Rate 0.250 kg/ha) | ECHCG ([12]; Rate 0.500 kg/ha) | ABUTH ([13]; Rate 0.125 kg/ha) | Herbicide rating (0-9) ECHCG ([14]; 0.125 kg/ha) | Herbicide rating (0-9) ECHCG ([14]; 0.250 kg/ha) | Herbicide rating (0-9) ECHCG ([14]; 0.500 kg/ha)
9.0: CHEAL ([5]; Rate 0.250 kg/ha) | CHEAL ([5]; Rate 0.500 kg/ha) | ABUTH ([13]; Rate 0.500 kg/ha)
2.0: AMBEL ([2]; Rate 0.500 kg/ha) | ORYSAT ([10]; Rate 0.500 kg/ha)
6.0: CHEAL ([5]; Rate 0.125 kg/ha)
4.0: GALAP ([6]; Rate 0.500 kg/ha)
3.0: SETVI ([9]; Rate 0.500 kg/ha) | ZEAMX ([11]; Rate 0.500 kg/ha) | ABUTH ([13]; Rate 0.250 kg/ha)
